Reference: US6906205B2, “Spiro and dispiro 1,2,4-trioxolane antimalarials” (Medicines for Malaria Venture MMV, priority 2002, dated 2005)
≈ marks a conversion by molar mass, not a printed value.

Columns and labels:
[1] = system: P. falciparum K1 strain (Thailand resistant to chloroquine); assay: semiautomated microdilution assay, [3H]-hypoxanthine incorporation, K1 strain; assay type: cell-based, Plasmodium falciparum; details: K1 strain, 72 h incubation
Summary of the method: (§1)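 Compounds were tested against intraerythrocytic parasites taken from asynchronous stock cultures, using semiautomated microdilution. IC50 values were estimated by logit regression analysis.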

[2] = system: P. falciparum NF54 strain (sensitive to standard antimalarials); assay: semiautomated microdilution assay, [3H]-hypoxanthine incorporation, NF54 strain; assay type: cell-based, Plasmodium falciparum; details: NF54 strain, 72 h incubation
Summary of the method: as §1

[3] = system: ANKA strain of P. berghei; assay: single dose STI in vivo screen in infected mice; design: species or system Plasmodium berghei; details: for Activity (%) po / Activity (%) sc / Activity (%) SSVpo / Activity (%) 10 mg/kg SSV po / Activity (%) 3 mg/kg SSV po: percent reduction in parasitemia day 3 post-infection; for Activity (%) po / Survival (days) po: single 10 mg/kg po in 3% ethanol and 7% Tween 80; for Activity (%) po / Activity (%) sc / Activity (%) SSVpo: mice; for Activity (%) sc / Survival (days) sc: single 10 mg/kg sc in 3% ethanol and 7% Tween 80; for Activity (%) SSVpo: single po dose in standard suspending vehicle (SSV); for Survival (days) po / Survival (days) sc / Survival (days) SSVpo: untreated control 5.6 ± 0.3; for Survival (days) SSVpo: single po dose in SSV; for Activity (%) 10 mg/kg SSV po / Survival (days) 10 mg/kg SSV po: single 10 mg/kg po in SSV
Summary of the method: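 Groups of 3-5 Moro SPF or NMRI mice infected with the ANKA strain of P. berghei received a single dose of trioxolane on day one post-infection. The compound was given in 3% ethanol and 7% Tween 80 or in SSV (0.5% w/v CMC, 0.5% v/v benzyl alcohol, 0.4% v/v Tween 80, 0.9% w/v sodium chloride in water). Antimalarial activity was scored as percent reduction in parasitemia on day three and as survival time versus untreated controls. Survival to day 30 counted as cure.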

| Structure (SMILES) | IC50 (ng/ml) K1 [1] [ng/mL] | IC50 (ng/ml) NF54 [2] [ng/mL] | Activity (%) po [3] [%] | Activity (%) sc [3] [%] | Activity (%) SSVpo [3] [%] | Survival (days) po [3] [days] | Survival (days) sc [3] [days] | Survival (days) SSVpo [3] [days] | Activity (%) 10 mg/kg SSV po [3] | Survival (days) 10 mg/kg SSV po [3] | Activity (%) 3 mg/kg SSV po ([3]; single 3 mg/kg po in SSV) [%] | Survival (days) 3 mg/kg SSV po ([3]; single 3 mg/kg po in SSV) [days] |
| --- | --- | --- | --- | --- | --- | --- | --- | --- | --- | --- | --- | --- |
| O=C(NC[C@H]1CC[C@]2(CC1)OOC1(O2)C2CC3CC(C2)CC1C3)c1cc[n+]([O-])cc1 (some centres unmarked) [OZ264] | 1.2 (≈ 2.9 nM) | 1.5 (≈ 3.62 nM) | 99.61 | 99.97 | 99.92 | 11.0 | 13.7 | 10.3 | – | – | – | – |
| NC(=O)NC[C@H]1CC[C@]2(CC1)OOC1(O2)C2CC3CC(C2)CC1C3 (some centres unmarked) [OZ265] | 0.56 (≈ 1.66 nM) | 1.6 (≈ 4.76 nM) | 99 | 99.67 | 98 | 13.0 | 11.7 | 9.7 | – | – | – | – |
| CN(C)C(=O)NC[C@H]1CC[C@]2(CC1)OOC1(O2)C2CC3CC(C2)CC1C3 (some centres unmarked) [OZ266] | 1.1 (≈ 3.02 nM) | 1.5 (≈ 4.12 nM) | 99 | 99.75 | 99.39 | 13.7 | 11.7 | 11.7 | – | – | – | – |
| CN1CCN(C(=O)NC[C@H]2CC[C@]3(CC2)OOC2(O3)C3CC4CC(C3)CC2C4)CC1 (some centres unmarked) [OZ267] | 0.20 (≈ 0.477 nM) | 0.34 (≈ 0.81 nM) | 99.92 | 99.97 | 99.89 | 8.3 | 9.3 | 8.7 | – | – | – | – |
| NC(=O)C(=O)NC[C@H]1CC[C@]2(CC1)OOC1(O2)C2CC3CC(C2)CC1C3 (some centres unmarked) [OZ268] | 0.44 (≈ 1.21 nM) | 0.71 (≈ 1.95 nM) | 99.86 | 99.92 | 99.47 | 9.3 | 9.7 | 13.3 | – | – | – | – |
| NC[C@H]1CC[C@@]2(CC1)OOC1(O2)C2CC3CC(C2)CC1C3 (some centres unmarked) [OZ269] | 0.32 (≈ 1.09 nM) | 0.61 (≈ 2.08 nM) | 98 | 99.92 | 86 | 10.7 | 9.0 | 11.3 | – | – | – | – |
| O=C(NC[C@H]1CC[C@]2(CC1)OOC1(O2)C2CC3CC(C2)CC1C3)c1cccc[n+]1[O-] (some centres unmarked) [OZ270] | 0.85 (≈ 2.05 nM) | 1.3 (≈ 3.14 nM) | 99.17 | 99.81 | 99.47 | 13.7 | 11.3 | 12.3 | – | – | – | – |
| FC1(c2ccccc2)CCC2(CC1)OOC1(O2)C2CC3CC(C2)CC1C3 (centres unmarked) [OZ274] | 5.1 (≈ 14.2 nM) | 5.7 (≈ 15.9 nM) | – | – | – | – | – | – | 11/ND % | 7.0/ND days | – | – |
| OC1(Cc2ccccn2)CCC2(CC1)OOC1(O2)C2CC3CC(C2)CC1C3 (centres unmarked) [OZ275] | 0.66 (≈ 1.78 nM) | 0.74 (≈ 1.99 nM) | – | – | – | – | – | – | 68/ND % | 7.3/ND days | – | – |
| O=C(C[C@H]1CC[C@]2(CC1)OO[C@]1(O2)C2CC3CC(C2)CC1C3)Nc1nnn[nH]1 [OZ278] | 23 (≈ 59.1 nM) | 39 (≈ 100 nM) | – | – | – | – | – | – | 56/ND % | 7.3/ND days | – | – |
| CC(C)(N)CNC[C@H]1CC[C@]2(CC1)OOC1(O2)C2CC3CC(C2)CC1C3 (some centres unmarked) [OZ287] | 0.49 (≈ 1.34 nM) | 0.83 (≈ 2.28 nM) | – | – | – | – | – | – | 95% | 8.3 days | 68 | – |
| c1ccc(CNC[C@H]2CC[C@]3(CC2)OO[C@]2(O3)C3CC4CC(C3)CC2C4)nc1 [OZ292] | 0.19 (≈ 0.494 nM) | 0.26 (≈ 0.676 nM) | – | – | – | – | – | – | 74% | 7.0 days | 46 | – |
| O=CN1CCN(C(=O)C[C@H]2CC[C@]3(CC2)OO[C@]2(O3)C3CC4CC(C3)CC2C4)CC1 [OZ294] | 0.39 (≈ 0.932 nM) | 0.63 (≈ 1.51 nM) | – | – | – | – | – | – | – | 8.6 days | 70 | – |
| O=C(C[C@H]1CC[C@]2(CC1)OO[C@]1(O2)C2CC3CC(C2)CC1C3)NCc1ccccn1 [OZ295] | 0.44 (≈ 1.07 nM) | 0.75 (≈ 1.82 nM) | – | – | – | – | – | – | 47% | 7.0 days | 35 | – |
| O=C(C[C@H]1CC[C@]2(CC1)OO[C@]1(O2)C2CC3CC(C2)CC1C3)N1CCC(O)CC1 [OZ297] | 0.49 (≈ 1.21 nM) | 0.76 (≈ 1.87 nM) | – | – | – | – | – | – | – | 9.8 days | 83 | – |
| O=S(=O)(C[C@H]1CC[C@]2(CC1)OO[C@]1(O2)C2CC3CC(C2)CC1C3)c1ncccn1 [OZ299] | 6.8 (≈ 16.2 nM) | 6.3 (≈ 15 nM) | – | – | – | – | – | – | 36% | 6.6 days | 0 | – |
| O=C(O)CCC(=O)NC[C@H]1CC[C@]2(CC1)OO[C@]1(O2)C2CC3CC(C2)CC1C3 [OZ300] | 71 (≈ 180 nM) | 97 (≈ 247 nM) | – | – | – | – | – | – | 6% | 6.8 days | 0 | – |
| NC(=O)CNC(=O)C[C@H]1CC[C@]2(CC1)OO[C@]1(O2)C2CC3CC(C2)CC1C3 [OZ306] | 3.9 (≈ 10.3 nM) | 3.6 (≈ 9.51 nM) | – | – | – | – | – | – | 99.58% | 9.2 days | 87 | – |
| CS(=O)(=O)C[C@H]1CC[C@]2(CC1)OO[C@]1(O2)C2CC3CC(C2)CC1C3 [OZ307] | 0.62 (≈ 1.74 nM) | 0.88 (≈ 2.47 nM) | – | – | – | – | – | – | 98% | 9.4 days | 74 | – |
| O=C(C[C@H]1CC[C@]2(CC1)OO[C@]1(O2)C2CC3CC(C2)CC1C3)NCCN1CCOCC1 [OZ313] | 0.55 (≈ 1.27 nM) | 0.76 (≈ 1.75 nM) | – | – | – | – | – | – | 98.9% | – | 58 | – |
| NC1(C(=O)NC[C@H]2CC[C@]3(CC2)OO[C@]2(O3)C3CC4CC(C3)CC2C4)CCCC1 [OZ317] | 0.33 (≈ 0.816 nM) | 0.36 (≈ 0.89 nM) | – | – | – | – | – | – | 99.92% | 9.8 days | 99.20 | – |
| NC(=O)CCNC[C@H]1CC[C@]2(CC1)OO[C@]1(O2)C2CC3CC(C2)CC1C3 [OZ319] | 0.41 (≈ 1.12 nM) | 0.91 (≈ 2.5 nM) | – | – | – | – | – | – | 99.92% | 10.6 days | 99.14 | 10.8 |
| NC1(C(=O)NC[C@H]2CC[C@]3(CC2)OO[C@]2(O3)C3CC4CC(C3)CC2C4)CCCCC1 [OZ333] | 0.24 (≈ 0.573 nM) | 0.44 (≈ 1.05 nM) | – | – | – | – | – | – | 99.86% | 9.2 days | 96 | – |
